# Experiments:
# Test in all cases: synergy with antibiotics (FIC index, checkerboard)
# VRE 725B = format: cell-based, Enterococcus faecalis; details: combination with VAN, data not shown
# From the text: (§1) Representatives from various classes were chosen in order to study the potential difference in synergistic activity according to the diverse mechanisms of action and resistance of these drugs. The method of minimal fractional inhibitory concentration (FIC) index (FICI) in a microtitration plate was used. FICI ≤ 0.5 means synergy; 0.5 < FICI < 1 means additivity; 1 ≤ FICI < 4 means indifference; and FICI ≥ 4 means antagonism.
# The used VRE strains were isolated from American crows by Oravcova et al., and their genetic profiles were characterized. All the VRE strains were carrying genes vanA, tetM, and ermB. Strains VRE 368 and VRE 725B carried gene aac, which provided acquired aminoglycoside resistance.
# (§2) For synergy effect study, a method of fractional inhibitory concentration was used. […] Raw H was used for the evaluation of MIC(A); column 12 was used for evaluation of MIC(B). The plate was inoculated by the bacterial suspension to reach final concentration of 5 × 10^5 CFU/mL in the wells. The fractional inhibitory concentration (FIC) index was calculated using the concentrations in the first nonturbid (clear) well found in each row and column along the turbidity/nonturbidity interface. To interpret the combined effect, the lowest FICI was used. A ΣFIC ≤ 0.5 means synergy; 0.5 < ΣFIC < 1 means additivity; 1 ≤ ΣFIC < 4 means indifference; and ΣFIC ≥ 4 means antagonism. The tests were made in duplicate, and the results were averaged.
# MRSA 63718 = format: cell-based, Staphylococcus aureus; details: in the combination of that line
# From the text: as §1, §2
# MRSA SA 3202 = format: cell-based, Staphylococcus aureus; details: in the combination of that line
# From the text: as §1, §2
SMILES,effect of the combination with VAN (VRE 725B),concentrations of the tested compound/clinically used antibiotic providing additivity or synergy (MRSA 63718) [µg/mL],concentrations of the tested compound/clinically used antibiotic providing additivity or synergy (MRSA SA 3202) [µg/mL]
"CCCCCCOc1cccc(NC(=O)OC(CN(CCC)CCC)CN2CCCC2)c1.Cl.Cl (stereo not shown) [1g, 1-[3-(dipropylammonio)-2-({[3-(hexyloxy)phenyl]carbamoyl}oxy)propyl]pyrrolidinium dichloride]",indifferent effect,2,–
"CCCCCCCOc1cccc(NC(=O)OC(CN(CCC)CCC)CN2CCCC2)c1.Cl.Cl (stereo not shown) [1h, 1-[3-(Dipropylammonio)-2-({[3-(heptyloxy)phenyl]carbamoyl}oxy)propyl]pyrrolidinium dichloride]",indifferent effect,–,4

# — PMC7168207, “Dibasic Derivatives of Phenylcarbamic Acid as Prospective Antibacterial Agents Interacting with Cytoplasmic Membrane” (Antibiotics, 2020)
